# Results as given in patent publication US7070983B2, “Mutant Pseudomonas putida strains and methods of use thereof” (priority 2003, dated 2006).
# Legend:
# Format in all cases: cell-based, Pseudomonas putida
# [1] = tested on: 4HBA-tolerant Str, Gen and Rif mutants of P. putida KH146-2; conditions: Str mutants and Rif mutants tested; in words
# Experimental: (§1) Pseudomonas putida KH146-2 was originally isolated from soil for the capability of growing in the presence of 4-hydroxybenzoate (Chen et al., ((1998) Res Communs Biochem and Cell & Mol Biol 2: 253–274)). HBM medium consists of 50 mM sodium potassium phosphate buffer (pH6.8), 0.1% (NH4)2SO4 and Hutner's base. Hutner's base cotained (per liter) nitrilotriacetic acid, 200 mg; CaCl2.2H2O, 67 mg; (NH4)6Mo7O24.4H2O, 185 μg; MgSO4, 289 mg; EDTA, 2.5 mg; ZnSO4.7H2O, 11 mg; FeSO4.7H2O, 7 mg; MnSO4.H2O, 1.5 mg; CuSO4.5H2O, 390 μg; Co(NO3)2.6H2O, 250 μg, and Na2B4O7.10H2O, 180 μg. LB medium contains 1% tryptone, 0.5% yeast extract, and 1% NaCl (adjusted pH 6.8). LBH medium contains 1% tryptone and 0.5% yeast extract in HBM medium. The bacteria were grown at 30° C. in a shaker at 200 rpm. For tolerance tests, HBM or LBH agar plates containing serially increasing concentrations of an organic chemical were employed. Routinely, 20 to 40 bacterial strains were spot-transplanted with the aid of tooth pick on an agar plate, followed by incubation at 30° C. for 3 days.
# Using several strains randomly chosen as representatives of 4HBA-tolerant mutants, we examined the tolerance level to various organic compounds. […] Tolerance levels to other organic compounds were also examined.
# KH146-2 = assay: Organic solvent tolerance, growth in saturated LBH medium
# Str and Rif mutants = assay: as above
# [2] = tested on: P. putida wild-type KH146-2; conditions: LBH medium, 30° C., 3 days
# Experimental: as §1
# [3] = tested on: P. putida strain no. 12 (Gen mutant); assay: Tolerance test (MIC) on agar plates; conditions: LBH medium
# Experimental: as §1
# [4] = tested on: P. putida strain no. 14 (Rif mutant); assay: Tolerance test (MIC) on agar plates; conditions: LBH medium
# Experimental: as §1
# [5] = tested on: P. putida strain no. 15 (Rif mutant); assay: Tolerance test (MIC) on agar plates; conditions: LBH medium
# Experimental: as §1
# [6] = tested on: P. putida strain no. 17 (Rif mutant); assay: Tolerance test (MIC) on agar plates; conditions: LBH medium
# Experimental: as §1
# [7] = tested on: P. putida strain no. 3 (Str mutant); assay: Tolerance test (MIC) on agar plates; conditions: LBH medium
# Experimental: as §1
# [8] = tested on: P. putida strain no. 9 (Str mutant); assay: Tolerance test (MIC) on agar plates; conditions: LBH medium
# Experimental: as §1
# [9] = LBH medium containing saturated concentrations of m-xylene
# [10] = 3% MeOH-LBH medium saturated with toluene
compound,measurement,setting,value
O=C(O)c1cc(Cl)ccc1O [5-chlorosalicylate],Tolerance of mutants relative to wild-type,[1],increased tolerance
O=C(O)c1ccc(O)c(Br)c1 [3-bromo-4-hydroxybenzoate],Tolerance of mutants relative to wild-type,[1],increased tolerance
Cc1cccc(C)c1 [m-xylene],growth,KH146-2; [9],inhibited almost completely
same,growth,Str and Rif mutants; [9],grew
norvalerate,Tolerance of mutants relative to wild-type,[1],increased tolerance
"O=C(O)c1cccc(O)c1 [3HBA, 3-hydroxybenzoate]",Tolerance (MIC),[2],1.4 ± 0.1%
same,Tolerance (MIC),[3],1.9 ± 0.2%
same,Tolerance (MIC),[4],1.9 ± 0.1%
same,Tolerance (MIC),[5],1.9 ± 0.2%
same,Tolerance (MIC),[6],1.8 ± 0.3%
same,Tolerance (MIC),[7],1.8 ± 0.2%
same,Tolerance (MIC),[8],1.8 ± 0.1%
same,Tolerance of mutants relative to wild-type,[1],modest increment of tolerance
O=C(O)c1cccc(I)c1 [3-iodobenzoate],Tolerance of mutants relative to wild-type,[1],increased tolerance
"O=C(O)c1ccccc1 [BA, benzoic acid]",Tolerance (MIC),[2],0.8 ± 0.2%
same,Tolerance (MIC),[3],1.0 ± 0.1%
same,Tolerance (MIC),[4],1.1 ± 0.1%
same,Tolerance (MIC),[5],1.0 ± 0.1%
same,Tolerance (MIC),[6],1.1 ± 0.1%
same,Tolerance (MIC),[7],1.0 ± 0.1%
same,Tolerance (MIC),[8],0.9 ± 0.1%
same,Tolerance of mutants relative to wild-type,[1],slight or no increase of tolerance
O=C(O)c1ccc(F)cc1 [4-fluorobenzoate],Tolerance of mutants relative to wild-type,[1],increased tolerance
CC(C)C(=O)O [isobutyrate],Tolerance of mutants relative to wild-type,[1],increased tolerance
O=C(O)c1ccccc1I [2-iodobenzoate],Tolerance of mutants relative to wild-type,[1],increased tolerance
isonicotinate,Tolerance of mutants relative to wild-type,[1],increased tolerance
"O=C(O)c1cccc(Cl)c1 [3CB, 3-chlorobenzoate]",Tolerance (MIC),[2],0.9 ± 0.1%
same,Tolerance (MIC),[3],1.1 ± 0.2%
same,Tolerance (MIC),[4],1.1 ± 0.2%
same,Tolerance (MIC),[5],1.3 ± 0.2%
same,Tolerance (MIC),[6],1.2 ± 0.1%
same,Tolerance (MIC),[7],1.1 ± 0.2%
same,Tolerance (MIC),[8],1.0 ± 0.2%
same,Tolerance of mutants relative to wild-type,[1],slight or no increase of tolerance
"O=C(O)c1ccccc1O [2HBA, 2-hydroxybenzoate]",Tolerance (MIC),[2],0.8 ± 0.1%
same,Tolerance (MIC),[3],0.8 ± 0.1%
same,Tolerance (MIC),[4],0.8 ± 0.1%
same,Tolerance (MIC),[5],0.8 ± 0.1%
same,Tolerance (MIC),[6],0.7 ± 0.1%
same,Tolerance (MIC),[7],0.9 ± 0.1%
same,Tolerance (MIC),[8],0.8 ± 0.1%
same,Tolerance of mutants relative to wild-type,[1],slight or no increase of tolerance
Cc1ccccc1 [toluene],growth,KH146-2; [10],somewhat retarded
same,growth,Str and Rif mutants; [10],grew normally
"O=C(O)c1ccccc1Cl [2CB, 2-chlorobenzoate]",Tolerance (MIC),[2],1.5 ± 0.2%
same,Tolerance (MIC),[3],1.9 ± 0.3%
same,Tolerance (MIC),[4],1.9 ± 0.2%
same,Tolerance (MIC),[5],2.0 ± 0.2%
same,Tolerance (MIC),[6],2.1 ± 0.2%
same,Tolerance (MIC),[7],1.9 ± 0.2%
same,Tolerance (MIC),[8],1.7 ± 0.2%
same,Tolerance of mutants relative to wild-type,[1],modest increment of tolerance
CC(C)CC(=O)O [isovalerate],Tolerance of mutants relative to wild-type,[1],increased tolerance
O=C(O)c1ccc(Cl)cc1O [4-chlorosalicylate],Tolerance of mutants relative to wild-type,[1],increased tolerance
